The target in test [1] is T1, HMG Co-A Reductase (Rattus norvegicus, UniProt P51639).
T1 construct: from tissue
T1 sequence (P51639 1-887): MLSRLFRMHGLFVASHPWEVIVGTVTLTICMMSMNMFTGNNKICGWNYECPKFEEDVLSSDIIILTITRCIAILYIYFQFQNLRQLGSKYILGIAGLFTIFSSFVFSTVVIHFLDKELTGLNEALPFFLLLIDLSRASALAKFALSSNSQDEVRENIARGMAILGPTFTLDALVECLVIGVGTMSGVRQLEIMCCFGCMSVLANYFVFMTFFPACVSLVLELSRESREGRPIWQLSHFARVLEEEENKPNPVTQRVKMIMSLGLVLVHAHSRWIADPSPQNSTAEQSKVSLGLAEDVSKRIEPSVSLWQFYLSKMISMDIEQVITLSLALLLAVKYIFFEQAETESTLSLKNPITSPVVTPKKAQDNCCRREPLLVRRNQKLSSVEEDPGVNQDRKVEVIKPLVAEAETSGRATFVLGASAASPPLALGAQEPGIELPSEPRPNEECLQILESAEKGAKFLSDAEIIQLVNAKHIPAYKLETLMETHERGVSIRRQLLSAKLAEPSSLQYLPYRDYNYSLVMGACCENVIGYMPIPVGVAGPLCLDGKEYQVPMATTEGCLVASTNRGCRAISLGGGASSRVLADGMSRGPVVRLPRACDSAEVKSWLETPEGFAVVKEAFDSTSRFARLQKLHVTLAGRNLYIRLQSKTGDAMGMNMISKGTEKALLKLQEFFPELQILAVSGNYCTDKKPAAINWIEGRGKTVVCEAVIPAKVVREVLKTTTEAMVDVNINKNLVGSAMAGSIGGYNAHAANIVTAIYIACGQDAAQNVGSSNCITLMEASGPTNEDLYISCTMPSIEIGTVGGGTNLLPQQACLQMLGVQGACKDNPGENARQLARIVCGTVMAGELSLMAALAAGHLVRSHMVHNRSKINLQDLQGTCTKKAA
As to the kind of experiment: Measurement of inhibiting effect on HMG Co-A reductase (inhibiting ratio of biosynthesis of cholesterol). The format is biochemical. Particulars: 0.1 μM samples, compactin = 100. As for the experimental part:
The inhibiting effect on HMG Co-A Reductase of representative examples of the 4-hydroxytetrahydropyran-2-one derivatives prepared in the above-discussed examples was measured in accordance with the method described in Journal of Biological Chemistry (J. Biol. Chem.) Vol. 234, page 2835 (1959) in order to investigate the inhibiting activity of each derivative in terms of the inhibiting ratio of the biosynthesis of cholesterol.

For test [2], the system named is rat brain homogenate. As to the kind of experiment: Anti-oxidation function: inhibition of automatic ABARTS reproduction of rat brain homogenate. It is filed as biochemical. Particulars: vitamin E as reference = 100. As for the experimental part:
The anti-oxidation function of some examples of the 4-hydroxytetrahydropyran-2-one derivatives prepared in the above-discussedexamples was measured as a reference of the inhibition function of the automatic ABARTS reproduction of the rat brain homogenate in accordance with the method described in Nippon Yakuri-shi 87, 427-434 (1986) by K. Shintomi et al.

Turning to `Cc1c(O)c(C)c2c(c1CC[C@H]1C[C@H](O)CC(=O)O1)OC(C)(C)C2` (racemic) [Compound No. 14, trans-(±)-6-(2,3-dihydro-5-hydroxy-2,2,4,6-tetramethylbenzo[b]furan-7-yl)ethyl-4-hydroxytetrahydropyran-2-one], the “Inhibiting Activity (Inhibiting Ratio of Biosynthesis of Cholesterol), relative value when the value of compactin is 100” value in test [1] is recorded as 11. Also, in test [2], the “Anti-oxidation Function” value was determined as 106. As to `CC(=O)Oc1c(C)c(CC[C@H]2C[C@H](O)CC(=O)O2)c2c(c1C)CC(C)(C)O2` (racemic) [Compound No. 33, trans-(±)-6-(5-acetoxy-2,3-dihydro-2,2,4,6-tetramethylbenzo[b]furan-7-yl)ethyl-4-hydroxytetrahydropyran-2-one], the “Inhibiting Activity (Inhibiting Ratio of Biosynthesis of Cholesterol), relative value when the value of compactin is 100” value in test [1] was determined as 21. The same measure, in the same setting: the figure for `Cc1c2c(c(CC[C@H]3C[C@H](O)CC(=O)O3)c(C(C)C)c1OCc1ccccc1)OC(C)(C)C2` (racemic) [Compound No. 81, trans-(±)-6-[5-benzyloxy-2,3-dihydro-6-(2-propyl)-2,2,4-trimethylbenzo[b]furan-7-yl]ethyl-4-hydroxytetrahydropyran-2-one] is 427; for `Cc1c2c(c(CC[C@H]3C[C@H](O)CC(=O)O3)c(C(C)(C)C)c1OCc1ccccc1)OC(C)(C)C2` (racemic) [Compound No. 112, trans-(±)-6-[5-benzyloxy-6-(t-butyl)-2,3-dihydro-2,2,4-trimethylbenzo[b]furan-7-yl]ethyl-4-hydroxytetrahydropyran-2-one] it is 190; for `CC1(C)Cc2cc(OCc3ccccc3)c(C(C)(C)C)c(CC[C@H]3C[C@H](O)CC(=O)O3)c2O1` (racemic) [Compound No. 124, trans-(±)-6-[5-benzyloxy-6-(t-butyl)-2,3-dihydro-2,2-dimethylbenzo[b]furan-7-yl]ethyl-4-hydroxytetrahydropyran-2-one] it is 300. As to `CC(C)c1c(OCc2ccccc2)cc2c(c1CC[C@H]1C[C@H](O)CC(=O)O1)OC(C)(C)C2` (racemic) [Compound No. 154, trans-(±)-6-[5-benzyloxy-2,3-dihydro-2,2-dimethyl-6-(2-propyl)benzo[b]furan-7-yl]ethyl-4-hydroxytetrahydropyran-2-one], in test [1], the “Inhibiting Activity (Inhibiting Ratio of Biosynthesis of Cholesterol), relative value when the value of compactin is 100” value is reported as 250. As for `Cc1c(CC[C@@H]2C[C@@H](O)CC(=O)O2)c2c(c(C)c1OCc1ccccc1)CC(C)(C)O2` (relative stereo) [Compound No. 13, trans-(±)-6-(5-benzyloxy-2,3-dihydro-2,2,4,6-tetramethylbenzo[b]furan-7-ethyl-4-hydroxytetrahydropyran-2-one], the “Inhibiting Activity (Inhibiting Ratio of Biosynthesis of Cholesterol), relative value when the value of compactin is 100” value in test [1] is given as 50. `Cc1c(CC[C@@H]2C[C@@H](O)CC(=O)O2)c2c(c(C)c1OC(=O)c1cccnc1)CC(C)(C)O2` (relative stereo) [Compound No. 31, trans-(±)-6-[2,3-dihydro-5-(pyridine-3-carboxy)-2,2,4,6-tetramethylbenzo[b]furan-7-yl]ethyl-4-hydroxytetrahydropyran-2-one]: in test [1], the “Inhibiting Activity (Inhibiting Ratio of Biosynthesis of Cholesterol), relative value when the value of compactin is 100” value is listed as 90. On the same count and under the same terms, the figure for `Cc1c(CC[C@@H]2C[C@@H](O)CC(=O)O2)c2c(c(C)c1OCc1ccccc1)CCC(C)(C)O2` (relative stereo) [Compound No. 45] is 39. For `Cc1c(O)c(C)c2c(c1CC[C@@H]1C[C@@H](O)CC(=O)O1)OC(C)(C)CC2` (relative stereo) [Compound No. 46, trans-(±)-6-[(6-hydroxy-2,2,5,7-tetramethyl)chroman-8-yl]ethyl-4-hydroxytetrahydropyran-2-one], the “Inhibiting Activity (Inhibiting Ratio of Biosynthesis of Cholesterol), relative value when the value of compactin is 100” value in test [1] came to 28. The “Anti-oxidation Function” value in test [2] is 106. The corresponding values for `CC(=O)Oc1c(C)c(CC[C@@H]2C[C@@H](O)CC(=O)O2)c2c(c1C)CCC(C)(C)O2` (relative stereo) [Compound No. 50, trans-(±)-6-[(6-acetoxy-2,2,5,7-tetramethyl)chroman-8-yl]ethyl-4-hydroxytetrahydropyran-2-one] are 12 and 106.

For `Cc1c(CC[C@@H]2C[C@@H](O)CC(=O)O2)c2c(c(C)c1OC(=O)c1cccnc1)CCC(C)(C)O2` (relative stereo) [Compound No. 52, trans-(±)-6-[[6-pyridine-3-carboxy)-2,2,5,7-tetramethyl]-chroman-8-yl]ethyl-4-hydroxytetrahydropyran-2-one], the “Inhibiting Activity (Inhibiting Ratio of Biosynthesis of Cholesterol), relative value when the value of compactin is 100” value in test [1] is reported as 18. Also, the “Anti-oxidation Function” value in test [2] is 19.

As for `Cc1c2c(c(CC[C@@H]3C[C@@H](O)CC(=O)O3)c(C(C)C)c1OC(=O)c1cccnc1)OC(C)(C)C2` (relative stereo) [Compound No. 156, trans-(±)-6-[2,3-dihydro-6-(2-propyl)-5-(pyridine-3-carboxy)-2,2,4-trimethylbenzo[b]furan-7-yl]ethyl-4-hydroxytetrahydropyran-2-one], the “Inhibiting Activity (Inhibiting Ratio of Biosynthesis of Cholesterol), relative value when the value of compactin is 100” value in test [1] was found to be 180.

As for Vitamin E [reference compound], the “Anti-oxidation Function” value in test [2] is reported as 100.

For the origin of these results see US5149834A, “4-Hydroxytetrahydropyran-2-one derivatives” (Fujirebio Inc., priority 1990, dated 1992).
